The results in this text go back to paper PMC7813677 (Frontiers in Bioengineering and Biotechnology, 2021).

Non-standard residues stand in square brackets, D forms with d. Residues, ends and D or L forms follow the SMILES beside them.

The series is described as follows: Dissolution of the peptide in water. In kind it is physicochemical. The following applies: before addition of saline buffer pH 7.4. Here is the method:
Gels were prepared by dissolving lyophilized peptide in water to obtain 2X concentrated (wt%) peptide stock solution. Peptide assembly was initiated by mixing together equal volumes of peptide stock solution and chilled 2X HEPES buffer solution (150 mM HEPES, 300 mM NaCl, pH 7.4) on ice. The final mixed solution (1X wt% peptide in 75 mM HEPES, 150 mM NaCl, pH 7.4) was then incubated for 2 h at 37°C, resulting with a self-supporting gel.

Regarding `CC(C)[C@H](N)C(=O)N[C@@H](CCCCN)C(=O)N[C@H](C(=O)N[C@@H](CCCCN)C(=O)N[C@H](C(=O)N[C@@H](CCCCN)C(=O)N[C@H](C(=O)N[C@@H](CCCCN)C(=O)N[C@H](C(=O)N1CCC[C@@H]1C(=O)N1CCC[C@H]1C(=O)N[C@H](C(=O)N[C@@H](CCCCN)C(=O)N[C@H](C(=O)N[C@@H](Cc1ccc(O)cc1)C(=O)N[C@H](C(=O)N[C@@H](CCCCN)C(=O)N[C@H](C(=O)N[C@@H](CCCCN)C(=O)N[C@H](C(N)=O)C(C)C)C(C)C)C(C)C)C(C)C)[C@@H](C)O)C(C)C)C(C)C)C(C)C)C(C)C` [tyrosine-functionalized peptide] (H-VKVKVKVKV[dP]PTKVYVKVKV-NH2), the Solubility in water result is “readily dissolved in water”.
